Experimental findings from the SangsterLogP compilation are described below.

SMILES strings stand for the structures.

For orientation: logP means the decadic logarithm of the partition coefficient of the neutral form, usually between octanol and water.

`CCCCCCCCCCCc1cccc(O)c1O` displayed a logP of 6.3.

With `CCCCCCCCCCCCCc1cccc(O)c1O`, the logP was determined as 7.75.

In turn, `CCCCCCCCCc1ccc(O)cc1` returned a logP of 5.76.

Compound `CCCCCCCCCCCCCCCc1ccccc1O` gave a logP of 10.1.

`CCCCCc1ccc(O)c(O)c1` had a logP of 3.13.

On to `CCCCCCCCCCCc1ccc(O)c(O)c1`, for which the logP was 6.94.

For `CCCCCCCCCc1ccc(O)c(O)c1`, the logP turned out to be 5.54.

Regarding `CCCCCCCCCCCc1ccc(O)cc1`, the logP is 7.18.

Consider `CCCCCCCc1cccc(O)c1O`, for which the logP is 3.59.

For `CCCCCCCCCCCCCc1ccc(O)c(O)c1`, the logP was 8.42.

For the compound `CCCCCCCCCCCc1cccc(O)c1`, the logP stood at 6.98.

On to `CCCCCCCCCCCCCCCc1ccc(O)cc1O`, for which the logP worked out at 8.29.

On to `CCCCCc1cccc(O)c1`, for which the logP was 3.13.

For the compound `CCCCCCCCCc1cccc(O)c1O`, the logP turned out to be 4.86.

`CCCCCCCCCc1cccc(O)c1`: the logP was found to be 5.61.

Regarding `CCCCCCCCCc1ccccc1O`, the logP amounted to 5.76.

As to `CCCCCCCCCCCCCCCc1cccc(O)c1`, the logP was 10.1.

Consider `CCCCCCCCCCCCCc1ccc(O)cc1O`, for which the logP came to 6.84.

Consider `CCCCCCCCCCCc1ccc(O)cc1O`, for which the logP stood at 5.43.

The compound `CCCCCCCCCCCCCc1ccccc1O` displayed a logP of 8.61.

For `CCCCCCCCCCCc1ccccc1O`, the logP worked out at 7.17.

Take `CCCCCCCCCCCCCCCc1ccc(O)c(O)c1`: the logP amounted to 9.9.

Take `CCCCCCCCCCCCc1ccc(O)cc1`: the logP came out at 7.91.

`CCCCCCCCCCCCCc1cccc(O)c1` had a logP of 8.84.

In the case of `CCCCCCCCCCCCCCCc1cccc(O)c1O`, the logP was determined as 9.27.

In turn, `CCCCCCCc1ccc(O)cc1O` came in with a logP of 2.9.

The compound `CCCCCCCCCc1ccc(O)cc1O` showed a logP of 4.1.

Turning to `CCCCCCCc1ccc(O)cc1`, the logP was found to be 4.15.

Take `CCCCCCCc1ccccc1O`: the logP was found to be 4.45.

`CCCCCCCCCCCCCc1ccc(O)cc1` returned a logP of 8.2.
